In ChEMBL document CHEMBL1201862, “PubChem BioAssay data set” (2004):
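1) Cells in 96-well plates. 2) Compound, 48 h, 5 concentrations. 3) Linear interpolation between surrounding doses. 4) Unreached endpoint = highest concentration. At the GI50, growth is halved.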 Calls of active or inactive are those of the source. No stated cut-off is given here; in the data, active = GI50 up to about 1.1 µM and inactive = higher.

How the values were obtained:
Experiment in all cases: DTP human tumour cell line panel, 48 h
SNB-19 = system: SNB-19
MOLT-4 = system: MOLT-4
HL-60 = system: HL-60
NCI-H226 = system: NCI-H226
U-251 = system: U-251
IGROV-1 = system: IGROV-1
NCI-H23 = system: NCI-H23
LOX IMVI = system: LOX IMVI
SF-539 = system: SF-539
HOP-62 = system: HOP-62
OVCAR-4 = system: OVCAR-4
RXF 393 = system: RXF 393
OVCAR-5 = system: OVCAR-5
HCT-116 = system: HCT-116
HCT-15 = system: HCT-15
CCRF-CEM = system: CCRF-CEM
SN12C = system: SN12C
HOP-92 = system: HOP-92
SNB-75 = system: SNB-75
SF-295 = system: SF-295

## CCN(CC)C(=O)c1cc(OC(C)C)ccc1-c1c(C)cc(OC(C)C)c(OC)c1OC
SNB-19
  GI50: 79.1 µM (inactive)
MOLT-4
  GI50: 25.5 µM (inactive)
HL-60
  GI50: 45.9 µM (inactive)
NCI-H226
  GI50: 98.2 µM (inactive)
U-251
  GI50: 63 µM (inactive)
IGROV-1
  GI50: > 100 µM (inactive)
NCI-H23
  GI50: 60 µM (inactive)
LOX IMVI
  GI50: 58.9 µM (inactive)
SF-539
  GI50: 92 µM (inactive)
HOP-62
  GI50: > 100 µM (inactive)
OVCAR-4
  GI50: 47.5 µM (inactive)
RXF 393
  GI50: 43 µM (inactive)
OVCAR-5
  GI50: > 100 µM (inactive)
HCT-116
  GI50: 38.2 µM (inactive)
HCT-15
  GI50: 46.9 µM
CCRF-CEM
  GI50: 34 µM (inactive)
SN12C
  GI50: 61.4 µM (inactive)

## COc1ccc(C(CC(=O)c2ccc(O)cc2)C(C(=O)c2ccc(O)cc2)C(c2ccc(OC)cc2)C2C(=O)NC(=S)NC2=O)cc1 (stereo not drawn)
SNB-19
  GI50: 21.8 µM (inactive)
HOP-92
  GI50: 46.9 µM (inactive)
MOLT-4
  GI50: 37.7 µM (inactive)
HL-60
  GI50: 32.1 µM (inactive)
NCI-H226
  GI50: 18.7 µM (inactive)
U-251
  GI50: 24.5 µM (inactive)
IGROV-1
  GI50: 15.5 µM (inactive)
LOX IMVI
  GI50: 17.9 µM (inactive)
HOP-62
  GI50: 26.1 µM (inactive)
OVCAR-4
  GI50: 18.8 µM (inactive)
OVCAR-5
  GI50: 20.7 µM (inactive)
HCT-116
  GI50: 16.8 µM (inactive)
HCT-15
  GI50: 21.2 µM
CCRF-CEM
  GI50: 11.1 µM (inactive)
SN12C
  GI50: 24.7 µM (inactive)
SNB-75
  GI50: 25.8 µM (inactive)
SF-295
  GI50: 20 µM (inactive)

## Cc1ccc(CCC(=O)C(=O)O)s1
SNB-19
  GI50: > 100 µM (inactive)
HOP-92
  GI50: > 100 µM (inactive)
MOLT-4
  GI50: > 100 µM (inactive)
HL-60
  GI50: > 100 µM (inactive)
U-251
  GI50: 81.7 µM (inactive)
IGROV-1
  GI50: > 100 µM (inactive)
NCI-H23
  GI50: > 100 µM (inactive)
SF-539
  GI50: > 100 µM (inactive)
HOP-62
  GI50: > 100 µM (inactive)
OVCAR-4
  GI50: > 100 µM (inactive)
OVCAR-5
  GI50: > 100 µM (inactive)
HCT-116
  GI50: 41 µM (inactive)
HCT-15
  GI50: > 100 µM
CCRF-CEM
  GI50: > 100 µM (inactive)
SN12C
  GI50: > 100 µM (inactive)
SNB-75
  GI50: > 100 µM (inactive)
SF-295
  GI50: > 100 µM (inactive)

## CC(C)OP(=O)(OC(C)C)c1nn(-c2ccc([N+](=O)[O-])cc2)c(=N)s1
SNB-19
  GI50: > 100 µM (inactive)
HOP-92
  GI50: > 100 µM (inactive)
MOLT-4
  GI50: 75.9 µM (inactive)
HL-60
  GI50: 68.1 µM (inactive)
U-251
  GI50: > 100 µM (inactive)
IGROV-1
  GI50: > 100 µM (inactive)
NCI-H23
  GI50: > 100 µM (inactive)
SF-539
  GI50: > 100 µM (inactive)
HOP-62
  GI50: > 100 µM (inactive)
OVCAR-4
  GI50: > 100 µM (inactive)
OVCAR-5
  GI50: > 100 µM (inactive)
HCT-116
  GI50: > 100 µM (inactive)
HCT-15
  GI50: > 100 µM
CCRF-CEM
  GI50: > 100 µM (inactive)
SN12C
  GI50: > 100 µM (inactive)
SNB-75
  GI50: 15 µM (inactive)
SF-295
  GI50: > 100 µM (inactive)

## O=C(N/N=C/C=C/c1ccccc1)[C@H](O)[C@@H](O)C(=O)N/N=C/C=C/c1ccccc1
SNB-19
  GI50: > 100 µM (inactive)
MOLT-4
  GI50: > 100 µM (inactive)
HL-60
  GI50: > 100 µM (inactive)
U-251
  GI50: > 100 µM (inactive)
IGROV-1
  GI50: > 100 µM (inactive)
NCI-H23
  GI50: > 100 µM (inactive)
LOX IMVI
  GI50: > 100 µM (inactive)
SF-539
  GI50: > 100 µM (inactive)
RXF 393
  GI50: > 100 µM (inactive)
OVCAR-5
  GI50: > 100 µM (inactive)
HCT-116
  GI50: > 100 µM (inactive)
HCT-15
  GI50: > 100 µM
CCRF-CEM
  GI50: > 100 µM (inactive)
SN12C
  GI50: > 100 µM (inactive)
SF-295
  GI50: > 100 µM (inactive)

## COc1ccc(/C=N/n2c(C)nc3c(sc(=S)n3-c3ccccc3)c2=O)cc1
SNB-19
  GI50: 82.4 µM (inactive)
HOP-92
  GI50: 40.7 µM (inactive)
MOLT-4
  GI50: 34.4 µM (inactive)
HL-60
  GI50: 21.6 µM (inactive)
NCI-H226
  GI50: > 100 µM (inactive)
U-251
  GI50: > 100 µM (inactive)
IGROV-1
  GI50: > 100 µM (inactive)
NCI-H23
  GI50: > 100 µM (inactive)
SF-539
  GI50: 47.3 µM (inactive)
HOP-62
  GI50: 66.8 µM (inactive)
OVCAR-5
  GI50: > 100 µM (inactive)
HCT-116
  GI50: > 100 µM (inactive)
CCRF-CEM
  GI50: 21.1 µM (inactive)
SNB-75
  GI50: 14.4 µM (inactive)
SF-295
  GI50: 37.2 µM (inactive)
